Measured values as given in patent US20050019438A1, “Hop extracts and use thereof in the production of a medicament having estrogenic properties” (priority 2001, published 2005).

System: Ishikawa cell line (Var. I) of human endometrial adenocarcinoma
Test: Ishikawa cell alkaline phosphatase assay of estrogenic activity
Assay type: cell-based
Excerpt: The in vitro assay used was developed by Littlefield in 1990 (Endocrinology 1990, 127, p. 2757-2762).
The variant of the cell line used is sensitive to estrogens, to which it responds not through a proliferative activity, but through an activity which stimulates an enzyme, alkaline phosphatase. This assay provides, in a sensitive and specific manner, information on the estrogenic activity since, among steroids, only the estrogens respond to this assay and succeed in stimulating the enzyme activity. The estrogenic activity can also be triggered by non-steroidal substances having a “estrogen-like” effect, such as phytoestrogens. The estrogenic responses obtained below are blocked by the reference anti-estrogen brought into contact, which indicates an estrogen receptor-mediated activity.
The model is an Ishikawa cell line (Var. I) of human endometrial adenocarcinoma (established by Nishida: Acta Obstet Gynaec Jap 1985, 37: 1103-1111).
Specifically, alkaline phosphatase hydrolyzes p-nitrophenol phosphate to p-nitrophenol, which gives a colored reaction.
The assay consists in measuring the absorbance at 405 nm after incubation for 72 h.
Two controls were used: • positive control=17β-estradiol, • negative control=antiestrogen ICI182, 780 from Zeneca. […]

Compound	estrogenic activity / response (in words) (alkaline phosphatase activation in Ishikawa cells, absorbance at 405 nm after 72 h)	blocking of the estrogenic responses by the anti-estrogen (reference anti-estrogen brought into contact, indicates estrogen receptor-mediated activity)
C[C@]12CC[C@@H]3c4ccc(O)cc4CC[C@H]3[C@@H]1CC[C@@H]2O [17β-Estradiol, 17β-estradiol]	expected dose-effect relationship	
C[C@]12CC[C@@H]3c4ccc(O)cc4C[C@@H](CCCCCCCCC[S+]([O-])CCCC(F)(F)C(F)(F)F)[C@H]3[C@@H]1CC[C@@H]2O (stereo partly drawn) [reference anti-estrogen]		blocked
